# Measurements from the supplement of paper PMC10307832.
# Tests used:
# Experiment in all cases: relative viability (nuclei count vs DMSO), 5 days (fraction); higher = more cells survive
# CAP-232 + Crizotinib = compound: C[C@H]([C@@H](C(=O)N)NC(=O)[C@@H]1CSSC[C@@H](C(=O)N[C@H](C(=O)N[C@@H](C(=O)N[C@H](C(=O)N1)CCCCN)CC2=CNC3=CC=CC=C32)CC4=CC=C(C=C4)O)NC(=O)[C@@H](CC5=CC=CC=C5)N)O [CAP-232] + C[C@@H](Oc1cc(-c2cnn(C3CCNCC3)c2)cnc1N)c1c(Cl)ccc(F)c1Cl [Crizotinib] (partner 1 µM)
# How it was run: (§1)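 Lung cancer cell lines in 1536-well plates got either a single drug or a fixed anchor-drug dose together with five library-drug doses (not always all listed) in √10 steps, by pin tool, on the day after seeding. Nuclei were counted after 5 days, and relative viability is the treated-to-vehicle ratio of nuclei counts. Values are medians of duplicate plates.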
# CAP-232 + Olaparib = compound: C[C@H]([C@@H](C(=O)N)NC(=O)[C@@H]1CSSC[C@@H](C(=O)N[C@H](C(=O)N[C@@H](C(=O)N[C@H](C(=O)N1)CCCCN)CC2=CNC3=CC=CC=C32)CC4=CC=C(C=C4)O)NC(=O)[C@@H](CC5=CC=CC=C5)N)O [CAP-232] + O=C(c1cc(Cc2n[nH]c(=O)c3ccccc23)ccc1F)N1CCN(C(=O)C2CC2)CC1 [Olaparib] (partner 8 µM)
# How it was run: as §1
# CAP-232 + Pemetrexed = compound: C[C@H]([C@@H](C(=O)N)NC(=O)[C@@H]1CSSC[C@@H](C(=O)N[C@H](C(=O)N[C@@H](C(=O)N[C@H](C(=O)N1)CCCCN)CC2=CNC3=CC=CC=C32)CC4=CC=C(C=C4)O)NC(=O)[C@@H](CC5=CC=CC=C5)N)O [CAP-232] + Nc1nc2[nH]cc(CCc3ccc(C(=O)N[C@@H](CCC(=O)O)C(=O)O)cc3)c2c(=O)[nH]1 [Pemetrexed] (partner 0.2 µM)
# How it was run: as §1
# CAP-232 + Trametinib = compound: C[C@H]([C@@H](C(=O)N)NC(=O)[C@@H]1CSSC[C@@H](C(=O)N[C@H](C(=O)N[C@@H](C(=O)N[C@H](C(=O)N1)CCCCN)CC2=CNC3=CC=CC=C32)CC4=CC=C(C=C4)O)NC(=O)[C@@H](CC5=CC=CC=C5)N)O [CAP-232] + CC(=O)Nc1cccc(-n2c(=O)n(C3CC3)c(=O)c3c(Nc4ccc(I)cc4F)n(C)c(=O)c(C)c32)c1 [Trametinib] (partner 0.02 µM)
# How it was run: as §1
# CAP-232 + Linsitinib = compound: C[C@H]([C@@H](C(=O)N)NC(=O)[C@@H]1CSSC[C@@H](C(=O)N[C@H](C(=O)N[C@@H](C(=O)N[C@H](C(=O)N1)CCCCN)CC2=CNC3=CC=CC=C32)CC4=CC=C(C=C4)O)NC(=O)[C@@H](CC5=CC=CC=C5)N)O [CAP-232] + C[C@]1(O)C[C@@H](c2nc(-c3ccc4ccc(-c5ccccc5)nc4c3)c3c(N)nccn32)C1 [Linsitinib] (partner 1 µM)
# How it was run: as §1
Cell Line,relative viability (CAP-232 + Crizotinib; first compound 0.4 µM),relative viability (CAP-232 + Crizotinib; first compound 1.265 µM),relative viability (CAP-232 + Crizotinib; first compound 4 µM),relative viability (CAP-232 + Crizotinib; first compound 12.65 µM),relative viability (CAP-232 + Olaparib; first compound 0.4 µM),relative viability (CAP-232 + Olaparib; first compound 1.265 µM),relative viability (CAP-232 + Olaparib; first compound 4 µM),relative viability (CAP-232 + Olaparib; first compound 12.65 µM),relative viability (CAP-232 + Pemetrexed; first compound 0.4 µM),relative viability (CAP-232 + Pemetrexed; first compound 1.265 µM),relative viability (CAP-232 + Pemetrexed; first compound 4 µM),relative viability (CAP-232 + Pemetrexed; first compound 12.65 µM),relative viability (CAP-232 + Trametinib; first compound 0.4 µM),relative viability (CAP-232 + Trametinib; first compound 1.265 µM),relative viability (CAP-232 + Trametinib; first compound 4 µM),relative viability (CAP-232 + Trametinib; first compound 12.65 µM),relative viability (CAP-232 + Linsitinib; first compound 0.4 µM),relative viability (CAP-232 + Linsitinib; first compound 1.265 µM),relative viability (CAP-232 + Linsitinib; first compound 4 µM),relative viability (CAP-232 + Linsitinib; first compound 12.65 µM)
201T,1.13,1.02,1.04,1.04,0.892,0.833,0.871,0.854,0.341,0.332,0.356,0.303,0.707,0.698,0.729,0.677,1.05,0.974,0.978,0.948
A549,0.86,0.734,0.871,0.251,0.211,0.292,0.396,0.326,,,,,,,,,0.621,0.59,0.583,0.531
A-427,0.881,0.913,0.908,0.93,0.813,0.646,0.808,0.814,1.22,0.923,0.974,0.924,0.615,0.716,0.795,0.684,1.14,1.09,1.15,1.12
ABC-1,1.01,1.17,1.08,0.903,0.778,,0.665,0.368,,,,,,,,,1.07,0.781,0.726,0.427
BEN,0.859,0.98,0.82,0.772,1.02,1.04,0.959,1.07,0.888,0.613,0.923,0.752,1.15,0.987,0.997,0.914,0.952,0.944,0.818,0.896
CAL-12T,0.531,0.703,0.657,0.739,0.778,0.767,0.696,0.6,0.929,1.26,1.16,1.1,0.233,0.303,0.394,0.162,0.812,0.784,0.892,0.966
COR-L23,0.665,0.793,0.72,0.619,0.43,0.403,0.404,0.279,0.203,0.199,0.196,0.163,0.455,0.597,0.604,0.281,0.92,1,0.971,0.676
COR-L 105,0.863,0.808,0.804,0.581,0.733,0.61,0.712,0.571,1.44,0.964,1.18,0.783,0.371,0.414,0.395,0.377,0.963,0.816,1.08,0.61
ChaGo-K-1,1.22,1.17,1.41,0.833,0.425,0.428,0.456,0.421,0.284,0.259,0.259,0.248,0.867,0.892,1.01,0.93,,,,
EKVX,0.899,1.1,1.03,0.651,0.901,0.95,0.993,0.804,0.392,0.375,0.413,0.33,0.583,0.342,0.268,0.331,1.01,1.07,0.972,0.737
EMC-BAC-2,0.794,0.753,0.764,0.709,0.52,0.47,0.469,0.398,0.44,0.412,0.422,0.442,0.757,0.864,0.859,0.415,0.785,0.796,0.821,0.774
EPLC-272H,1.16,0.836,0.791,0.887,,0.935,0.761,0.31,,0.411,0.316,0.178,0.261,0.258,0.281,0.28,1.33,1.02,1.3,1.09
H3255,0.956,1.04,0.854,0.692,0.569,0.587,0.552,0.433,0.605,0.549,0.559,0.543,0.608,,0.543,0.436,0.922,0.924,1.16,0.916
HARA,1.16,1.05,0.936,0.998,0.823,0.784,0.865,0.609,0.281,0.243,0.268,0.215,0.323,0.9,0.643,0.506,0.907,0.989,1.14,0.836
HCC-15,0.807,0.816,0.924,0.825,0.65,0.711,0.737,0.55,0.19,0.218,0.223,0.0856,0.376,0.364,0.393,0.267,0.853,0.894,0.912,0.805
HCC-44,0.866,0.812,0.863,0.846,0.99,0.975,0.943,1.04,0.648,0.622,0.626,0.686,0.997,1.02,1.06,1.04,0.817,0.666,0.754,0.627

Cell Line,relative viability (CAP-232 + Crizotinib; first compound 0.4 µM),relative viability (CAP-232 + Crizotinib; first compound 1.265 µM),relative viability (CAP-232 + Crizotinib; first compound 4 µM),relative viability (CAP-232 + Crizotinib; first compound 12.65 µM),relative viability (CAP-232 + Olaparib; first compound 0.4 µM),relative viability (CAP-232 + Olaparib; first compound 1.265 µM),relative viability (CAP-232 + Olaparib; first compound 4 µM),relative viability (CAP-232 + Olaparib; first compound 12.65 µM),relative viability (CAP-232 + Pemetrexed; first compound 0.4 µM),relative viability (CAP-232 + Pemetrexed; first compound 1.265 µM),relative viability (CAP-232 + Pemetrexed; first compound 4 µM),relative viability (CAP-232 + Pemetrexed; first compound 12.65 µM),relative viability (CAP-232 + Trametinib; first compound 0.4 µM),relative viability (CAP-232 + Trametinib; first compound 1.265 µM),relative viability (CAP-232 + Trametinib; first compound 4 µM),relative viability (CAP-232 + Trametinib; first compound 12.65 µM),relative viability (CAP-232 + Linsitinib; first compound 0.4 µM),relative viability (CAP-232 + Linsitinib; first compound 1.265 µM),relative viability (CAP-232 + Linsitinib; first compound 4 µM),relative viability (CAP-232 + Linsitinib; first compound 12.65 µM)
HCC-78,0.367,0.34,0.251,0.323,0.852,0.863,1.08,0.924,0.939,0.912,0.901,0.899,0.688,0.824,0.918,0.727,0.53,0.559,0.371,0.408
HCC-366,0.486,0.543,0.623,0.448,0.4,0.383,0.289,0.299,0.201,0.175,0.202,0.17,0.365,0.419,0.327,0.349,0.745,0.628,0.824,0.537
HCC-827,0.932,1.02,0.784,0.963,0.699,0.627,0.622,0.672,0.266,0.277,0.222,0.231,0.469,0.543,0.491,0.549,0.911,0.893,0.921,0.959
HOP-62,1,,1.05,0.729,1.08,0.388,0.604,0.709,0.331,0.322,0.341,0.295,0.333,0.348,0.382,0.423,0.776,,0.954,0.946
IA-LM,0.852,0.928,0.892,0.242,0.784,0.86,0.993,0.405,,,,,,,,,0.828,0.611,0.711,0.394
NCI-H522,,,,,0.78,0.587,0.638,0.789,0.921,1.08,0.888,0.974,0.772,0.856,0.607,0.726,,,,
NCI-H727,,0.757,1.04,0.82,0.705,0.613,0.757,0.648,,,,,0.383,0.397,0.442,0.415,,0.346,0.316,0.245
NCI-H1395,,,,,0.436,,0.462,0.264,0.971,,0.917,0.503,1.17,,1.06,1.1,1.3,0.986,1.03,0.831
NCI-H1563,0.965,0.911,0.835,0.777,,,,,0.802,0.655,0.744,0.669,,,,,1.36,1.12,1.21,0.829
NCI-H1650,0.98,0.963,0.966,0.627,1.04,0.799,0.836,0.493,0.436,0.385,0.451,0.336,0.631,0.557,0.54,0.215,,,,
NCI-H1703,0.788,0.844,0.74,0.695,0.388,0.468,0.315,0.388,,,,,,,,,0.489,0.642,0.933,0.873
NCI-H1793,,,,,0.921,0.922,1.04,0.877,1.01,0.61,0.905,0.696,0.342,0.396,0.356,0.493,1.09,1.06,0.652,0.801
NCI-H2170,1.24,1.22,1.23,0.901,0.622,0.588,0.738,0.636,0.247,0.261,0.267,0.244,0.977,0.918,1.05,1.08,,,,
NCI-H2342,,,,,0.447,0.441,0.46,0.396,0.798,0.745,0.779,0.835,0.788,0.746,0.766,0.787,,,,
SW 900,,,,,0.766,0.883,0.698,0.99,0.487,0.48,0.47,0.499,0.75,0.93,0.677,0.767,,,,
